ChEMBL document CHEMBL3885881, “DrugMatrix”

Species: Rattus norvegicus
Test: DrugMatrix - Regimen: Daily Repeat
Assay type: toxicity, organism-based, Sprague-Dawley
Parameters: regimen Daily Repeat, gender Male, age 6-8 weeks
Conditions: in vivo, po, route oral GAVAGE, vehicle .5 % CMC; for ABSOLUTE BASOPHIL / ABSOLUTE EOSINOPHIL / ABSOLUTE LYMPHOCYTE / ABSOLUTE MONOCYTE / ABSOLUTE SEGMENTED NEUTROPHIL / BASOPHIL / EOSINOPHIL / ERYTHROCYTE COUNT / HEMATOCRIT / HEMOGLOBIN / LEUKOCYTE COUNT / LYMPHOCYTE / MEAN CORPUSCULAR HEMOGLOBIN / MEAN CORPUSCULAR HEMOGLOBIN CONCENTRATION / MEAN CORPUSCULAR VOLUME / MONOCYTE / NEUTROPHIL / NUCLEATED RED BLOOD CELLS / PLATELET COUNT: tissue Blood; for ALANINE AMINOTRANSFERASE / ALBUMIN / ALKALINE PHOSPHATASE / ASPARTATE AMINOTRANSFERASE / BLOOD UREA NITROGEN / CARBON DIOXIDE / CHLORIDE / CHOLESTEROL / CREATINE PHOSPHOKINASE / CREATININE / GLUCOSE / LACTATE DEHYDROGENASE / LIPASE / PHOSPHORUS / POTASSIUM / SODIUM / TOTAL BILIRUBIN / TOTAL PROTEIN / URIC ACID: tissue Plasma
[1] = 0 mg/kg, 72 h, dose level Control, time 3 day
[2] = 0 mg/kg, 120 h, dose level Control, time 5 day
[3] = 30 mg/kg, 72 h, dose level Low, time 3 day

CCOc1cc(N)c(Cl)cc1C(=O)NCC1CN(Cc2ccc(F)cc2)CCO1 (centres undefined) [MOSAPRIDE]
ABSOLUTE BASOPHIL [1]: 0 CELLS/uL
ABSOLUTE EOSINOPHIL [1]: 171.33 CELLS/uL
ABSOLUTE LYMPHOCYTE [1]: 13776.5 CELLS/uL
ABSOLUTE MONOCYTE [1]: 180.83 CELLS/uL
ABSOLUTE SEGMENTED NEUTROPHIL [1]: 1121.33 CELLS/uL
BASOPHIL [1]: 0%
EOSINOPHIL [1]: 1%
ERYTHROCYTE COUNT [1]: 5.56 x10E6/uL
HEMATOCRIT [1]: 34.75%
HEMOGLOBIN [1]: 13.68 G/DL
LEUKOCYTE COUNT [1]: 15.25 x10E3/uL
LYMPHOCYTE [1]: 90.17%
MEAN CORPUSCULAR HEMOGLOBIN [1]: 24.6 pg
MEAN CORPUSCULAR HEMOGLOBIN CONCENTRATION [1]: 39.4 G/DL
MEAN CORPUSCULAR VOLUME [1]: 62.48 fL
MONOCYTE [1]: 1.17%
NEUTROPHIL [1]: 7.67%
NUCLEATED RED BLOOD CELLS [1]: 0 /100WBC
PLATELET COUNT [1]: 1342 x10E3/uL
ALANINE AMINOTRANSFERASE [1]: 49.67 u/L
ALBUMIN [1]: 4.15 G/DL
ALKALINE PHOSPHATASE [1]: 346.83 u/L
ASPARTATE AMINOTRANSFERASE [1]: 108.17 u/L
BLOOD UREA NITROGEN [1]: 17.33 mg/dL
CARBON DIOXIDE [1]: 25 mmol/L
CHLORIDE [1]: 100.83 MEQ/L
CHOLESTEROL [1]: 66.83 mg/dL
CREATINE PHOSPHOKINASE [1]: 788 u/L
CREATININE [1]: 0.18 mg/dL
GLUCOSE [1]: 151.67 mg/dL
LACTATE DEHYDROGENASE [1]: 982.5 u/L
LIPASE [1]: 10.33 u/L
PHOSPHORUS [1]: 11.23 mg/dL
POTASSIUM [1]: 6.37 MEQ/L
SODIUM [1]: 141.02 MEQ/L
TOTAL BILIRUBIN [1]: 0.18 mg/dL
TOTAL PROTEIN [1]: 5.9 G/DL
URIC ACID [1]: 1.8 mg/dL
ABSOLUTE BASOPHIL [2]: 0 CELLS/uL
ABSOLUTE EOSINOPHIL [2]: 69 CELLS/uL
ABSOLUTE LYMPHOCYTE [2]: 13632.83 CELLS/uL
ABSOLUTE MONOCYTE [2]: 139.83 CELLS/uL
ABSOLUTE SEGMENTED NEUTROPHIL [2]: 1225 CELLS/uL
BASOPHIL [2]: 0%
EOSINOPHIL [2]: 0.33%
ERYTHROCYTE COUNT [2]: 5.52 x10E6/uL
HEMATOCRIT [2]: 33.98%
HEMOGLOBIN [2]: 13.22 G/DL
LEUKOCYTE COUNT [2]: 15.07 x10E3/uL
LYMPHOCYTE [2]: 90.83%
MEAN CORPUSCULAR HEMOGLOBIN [2]: 23.95 pg
MEAN CORPUSCULAR HEMOGLOBIN CONCENTRATION [2]: 38.9 G/DL
MEAN CORPUSCULAR VOLUME [2]: 61.53 fL
MONOCYTE [2]: 0.83%
NEUTROPHIL [2]: 8%
NUCLEATED RED BLOOD CELLS [2]: 0 /100WBC
PLATELET COUNT [2]: 1196 x10E3/uL
ALANINE AMINOTRANSFERASE [2]: 49.17 u/L
ALBUMIN [2]: 4.2 G/DL
ALKALINE PHOSPHATASE [2]: 352.33 u/L
ASPARTATE AMINOTRANSFERASE [2]: 89.67 u/L
BLOOD UREA NITROGEN [2]: 18 mg/dL
CARBON DIOXIDE [2]: 27.67 mmol/L
CHLORIDE [2]: 101 MEQ/L
CHOLESTEROL [2]: 72.83 mg/dL
CREATINE PHOSPHOKINASE [2]: 417.5 u/L
CREATININE [2]: 0.18 mg/dL
GLUCOSE [2]: 150.5 mg/dL
LACTATE DEHYDROGENASE [2]: 517.33 u/L
LIPASE [2]: 9 u/L
PHOSPHORUS [2]: 11.87 mg/dL
POTASSIUM [2]: 6.57 MEQ/L
SODIUM [2]: 143.62 MEQ/L
TOTAL BILIRUBIN [2]: 0.2 mg/dL
TOTAL PROTEIN [2]: 6.08 G/DL
URIC ACID [2]: 1.45 mg/dL
ABSOLUTE BASOPHIL [3]: 0 CELLS/uL
ABSOLUTE EOSINOPHIL [3]: 0 CELLS/uL
ABSOLUTE LYMPHOCYTE [3]: 13493 CELLS/uL
ABSOLUTE MONOCYTE [3]: 253.67 CELLS/uL
ABSOLUTE SEGMENTED NEUTROPHIL [3]: 1253.33 CELLS/uL
BASOPHIL [3]: 0%
EOSINOPHIL [3]: 0%
ERYTHROCYTE COUNT [3]: 5.62 x10E6/uL
HEMATOCRIT [3]: 34.97%
HEMOGLOBIN [3]: 13.6 G/DL
LEUKOCYTE COUNT [3]: 15 x10E3/uL
LYMPHOCYTE [3]: 90%
MEAN CORPUSCULAR HEMOGLOBIN [3]: 24.23 pg
MEAN CORPUSCULAR HEMOGLOBIN CONCENTRATION [3]: 38.9 G/DL
MEAN CORPUSCULAR VOLUME [3]: 62.3 fL
MONOCYTE [3]: 1.67%
NEUTROPHIL [3]: 8.33%
NUCLEATED RED BLOOD CELLS [3]: 0 /100WBC
PLATELET COUNT [3]: 1159.67 x10E3/uL
ALANINE AMINOTRANSFERASE [3]: 57.33 u/L
ALBUMIN [3]: 4.3 G/DL
ALKALINE PHOSPHATASE [3]: 338 u/L
ASPARTATE AMINOTRANSFERASE [3]: 95 u/L
BLOOD UREA NITROGEN [3]: 14.67 mg/dL
CARBON DIOXIDE [3]: 26.33 mmol/L
CHLORIDE [3]: 102 MEQ/L
CHOLESTEROL [3]: 74 mg/dL
CREATINE PHOSPHOKINASE [3]: 533.33 u/L
CREATININE [3]: 0.2 mg/dL
GLUCOSE [3]: 136.67 mg/dL
LACTATE DEHYDROGENASE [3]: 408 u/L
LIPASE [3]: 10.67 u/L
PHOSPHORUS [3]: 12.77 mg/dL
POTASSIUM [3]: 6.39 MEQ/L
SODIUM [3]: 143.7 MEQ/L
TOTAL BILIRUBIN [3]: 0.2 mg/dL
TOTAL PROTEIN [3]: 6 G/DL
URIC ACID [3]: 1.47 mg/dL
